How the values were obtained:
[1] = target: T1, PARP-1 (Homo sapiens, UniProt P09874); assay: PARP-1 auto-PARylation activity assay in cells; assay type: cell-based
Description: Cells were washed with PBS, and lysed in RIPA buffer (50 mM Tris-HCl [pH 8.0], 150 mM NaCl, 0.1% SDS, 1% Triton X-100, 1× cOmplete™ protease inhibitors (Roche), and 1 μM Veliparib). […] Following quantification, 4× Laemmli sample buffer with 5% β-mercaptoethanol was added to 25-50 μg of protein.
Membrane blots were blocked with 5% milk-PBST for 1 h at RT, followed by incubation with a rabbit pan-ADP-ribose binding reagent (Cell Signaling), a rabbit PARP-1 antibody (Bethyl Laboratories), or a mouse b-actin antibody (Santa Cruz Biotechnology) for 2 h at RT, followed by incubation with HRP-conjugated secondary antibodies. […] Blots were imaged for chemiluminescent signal on a ChemiDoc MP system (BioRad). Statistical significance was established through multiple unpaired t-tests with nonlinear regression fit analysis.
FIGS. 5A-5F. […] An unlabeled competitor was added and the decrease in fluorescence polarization was measured across time. […] Error bars represent SEM. […] Error bars represent SEM. […] Cells were subsequently lysed using RIPA buffer, run out on SDS-PAGE, and probed for ADPr (Cell Signaling) and PARP-1 (Bethyl Laboratories). FIG. 5F) Quantification of western blot images. ADPr values are normalized to PARP-1 within each replicate and plotted as percentage compared to DMSO. Error bars indicate SEM (n=3).

[2] = system: HEK 293T cells; assay: cell proliferation (MTT) assay; assay type: cell-based, human; conditions: MTT, 72 h
Description: HEK 293T or HEK 293 PARP-1 KO cells were seeded in a 96 well plate at 1000-2000 cells per well. Following an overnight incubation, MTT reagent, 3-(4,5-dimethylthiazol-2-yl)-2,5-diphenyltetrazolium bromide, or a dosage curve of indicated inhibitor was added to each well in quadruplicate. Following a 3-hour incubation at 37° C., wells containing MTT reagent, were aspirated and lysed with 100 μl DMSO. These wells acting as a no growth control were collected, saved @ −20° C., and replaced with 100 μl water. The plate was placed back into the incubator for a total of 72 hours of inhibitor treatment prior to MTT reagent being added for a final time. Following a 3 hour incubation with the reagent, wells were aspirated, and 100 μl DMSO were added to each well, while the no growth control sample was added back to the plate. Absorbance was read on a SpectraMaxi3 plate reader (Molecular Devices). Percent growth was calculated for analysis. Statistical significance was assigned using individual t-tests between conditions for each inhibitor dosage.
Error bars represent SEM. […] Error bars represent SEM. […] Error bars represent SEM.

[3] = target: T1, PARP-1; assay: fluorescence polarization DNA binding affinity assay; conditions: 5 μM inhibitor; compared to DMSO control
Description: The full-length WT PARP-1 protein used in these assays was purified as described previously (30).

[4] = target: T1, PARP-1; assay: in-cell competition labeling with ad-olaparib photoaffinity probe; assay type: cell-based
Description: Photocrosslinking in intact cells. HEK293 CRL and PARP-1 KO cells were grown in DMEM for 2 days in a 60 mm dish for 2 days to reach 80-90% confluency. […] Cells were then washed once with PBS, covered with PBS and irradiated for 5 min in the RPR-100 Photochemical Reactor (Rayonet) equipped with 350 nm lamps at 4° C. Cells were lysed on ice in 1% SDS, 1% Triton X-100 and EDTA-free protease inhibitor cocktail (Roche) in PBS for 10 min and then probe sonicated to shear the nuclear DNA. Protein concentration was determined with Bio-Rad Protein assay. The lysate was diluted in PBS to a final Click reaction concentration of 2 mg/mL.
Click Chemistry. Reaction was started by mixing 30 μL of each sample with 15 μL of PBS based 3× Click reaction mixture containing (final concentrations): 100 μM Tris[(1-benzyl-1H-1,2,3triazol-4-yl)methyl]amine (TBTA, Click Chemistry Tools), 1 mM CuSO4, 40 μM tetramethylrhodamine (TAMRA)-azide (Click Chemistry Tools), 1 mM Tris(2-carboxyethyl)phosphine hydrochloride (TCEP, Thermo Fisher) and 15% tert-Butyl alcohol, and let to procced for 1 h at RT while gently shaking. Reactions were stopped by adding 4× Laemmli sample buffer and boiling at 95° C. for 5 min.
In gel fluorescence, western blotting and quantification. Samples were loaded to 8 or 10% SDS-polyacrylamide gels and run until the dye front left the gel. First, in-gel fluorescence was detected with ChemiDoc XRS+ (Biorad) using Rhodamine filter and then the proteins were transferred on nitrocellulose membrane, the membrane was blocked and probed for PARP-1 (1:3000) and alpha-tubulin (1:1000). Both antibodies were from cell signaling. Band intensities we quantified with ImageJ.
(§1) FIGS. 6A-6E. […] 0.1 μM ad-olaparib (chemical structure indicated in panel a) was added to the cells for 1 hour before undergoing a UV treatment for 5 minutes in cold PBS. Cells were lysed and sonicated in PBS (1% Triton X-100+1% SDS), clicked with TAMRA-azide and run out on SDS-PAGE. The gel was imaged for TAMRA and probed for PARP-1 (Bethyl Laboratories), and alpha-tubulin (X). FIGS. 6B, 6D) Quantification of western blot images. TAMRA or ADPr values are normalized to PARP-1 within each replicate and plotted as percentage compared to DMSO. Error bars indicate SEM (n=3-4). Statistical significance of off-rate calculated via multiple t-tests (p<0.05). […] Cells were subsequently treated with PARGi (10 μM) for 30 minutes, lysed using RIPA buffer, run out on SDS-PAGE, and probed for ADPr (Cell Signaling) and PARP-1 (Bethyl Laboratories). FIG. 6E) ES-8 cells were treated with indicated concentration of inhibitors for 72 hours before measuring cell viability using the CellTiter-Glo kit (Promega G7573). IC50 values were calculated using R statistical software.

[5] = target: T1, PARP-1; assay: PARP-1 PARylation after washout (off-rate analysis); assay type: cell-based; conditions: 300 nM, 30 minutes, no washout; read-out: inhibition of PARP-1-mediated PARylation activity prior to washout
Description: For off-rate analysis, after 30 minute pre-treatment with indicated inhibitors, cells were washed once before incubating for 0, 3, 6, or 12 hours in fresh media. Following release times, cells were incubated with PDD 00017273 (10 μM) for 30 minutes before proceeding using the same western blot protocol detailed above. Statistical significance was established through multiple unpaired t-tests with nonlinear regression fit analysis.
as §1, with “FIG. 6E) ES-8 cells were treated with indicated concentration of inhibitors for 72 hours before measuring cell viability using the CellTiter-Glo kit (Promega G7573).” left out

[6] = system: Ewing sarcoma cell line EW-8; assay: ES-8 viability screen (CellTiter-Glo); assay type: cell-based
Description: Cell viability was measured using the CellTiter-Glo (Promega, G7573) assay and read using an Envision (PerkinElmer) plate reader. Compound source plates (96-well) were prepared by solubilizing each drug in DMSO to a maximum concentration of 1-50 mM, then arraying samples in 10-point dose-response with 3-fold dilution. Positive and negative controls (staurosporine at 10 mM and DMSO, respectively) were added to the source plates. Drug was transferred from the source plate to the assay plate using a Biomek FX (Beckman Coulter) liquid handler equipped with a pin tool which transferred ˜100 nl into a final volume of 100 μl, resulting in ˜1000-fold dilution. At least two biological replicates (assay performed on different day with same drug plate and independent cell preparation) were obtained for each drug. To analyze the assay, the relative light unit signal in each well was first log 2 transformed, then normalized by subtracting the mean of the negative controls wells on each plate.
as §1

[7] = target: T1, PARP-1; assay: in vitro PARP-1 auto-PARylation assay (SRPK2 plate assay); assay type: biochemical; design: The full-length WT PARP-1 protein used in these assays; made in house
Description: IC50 SRPK2 Plate Assays were performed as previously described (21). Log(inhibitor) versus response curves were fit using non-linear regression with variable slope. Mean IC50 values for each compound were derived from a minimum of three separate replicates.

T1 sequence (P09874 whole entry): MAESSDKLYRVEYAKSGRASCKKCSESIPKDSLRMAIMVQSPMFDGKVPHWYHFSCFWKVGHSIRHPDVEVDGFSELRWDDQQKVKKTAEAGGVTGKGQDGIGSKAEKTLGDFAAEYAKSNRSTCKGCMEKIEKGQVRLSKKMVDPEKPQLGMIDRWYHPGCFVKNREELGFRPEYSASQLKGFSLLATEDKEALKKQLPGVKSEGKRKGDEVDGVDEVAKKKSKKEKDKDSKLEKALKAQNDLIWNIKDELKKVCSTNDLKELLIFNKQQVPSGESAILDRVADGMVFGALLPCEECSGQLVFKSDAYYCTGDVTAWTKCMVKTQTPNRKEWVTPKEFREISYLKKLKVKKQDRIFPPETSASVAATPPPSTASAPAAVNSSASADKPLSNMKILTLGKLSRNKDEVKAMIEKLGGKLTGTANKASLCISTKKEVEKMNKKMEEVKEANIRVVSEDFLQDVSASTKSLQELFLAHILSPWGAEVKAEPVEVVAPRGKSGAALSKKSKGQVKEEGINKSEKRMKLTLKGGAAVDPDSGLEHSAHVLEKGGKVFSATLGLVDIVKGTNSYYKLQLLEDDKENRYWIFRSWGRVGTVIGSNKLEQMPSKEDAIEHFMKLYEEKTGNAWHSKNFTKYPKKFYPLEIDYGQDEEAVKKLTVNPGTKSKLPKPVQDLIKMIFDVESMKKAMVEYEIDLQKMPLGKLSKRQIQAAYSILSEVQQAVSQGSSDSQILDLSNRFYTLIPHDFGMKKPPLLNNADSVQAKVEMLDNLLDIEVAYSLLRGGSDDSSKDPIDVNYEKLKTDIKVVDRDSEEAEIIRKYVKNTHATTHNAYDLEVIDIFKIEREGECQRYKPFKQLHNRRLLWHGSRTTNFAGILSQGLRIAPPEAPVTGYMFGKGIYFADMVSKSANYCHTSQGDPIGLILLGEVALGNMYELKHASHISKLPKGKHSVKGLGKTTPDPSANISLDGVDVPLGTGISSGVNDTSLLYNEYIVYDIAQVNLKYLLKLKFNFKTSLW

C[C@H]1Cn2c(nnc2C(C)(F)F)CN1C(=O)c1cc(Cc2n[nH]c(=O)c3ccccc23)ccc1F [Pip6, (S)-4-(3-(3-(1,1-difluoroethyl)-6-methyl-5,6,7,8-tetrahydro-[1,2,4]triazolo[4,3-a]pyrazine-7-carbonyl)-4-fluorobenzyl)phthalazin-1(2H)-one]
fold more potent than AZ0108 in inhibiting PARP-1 PARylation in HEK 293 cells [1]: ~20 fold
EC50 ([1]; 30 min inhibitor, then PARG inhibitor PDD00017273, read-out: EC50 inhibiting PARP-1 PARylation in HEK 293 cells): 2.3 nM
IC50 ([1]; FIG. 5F, nonlinear regression, read-out: IC50 of dose curves, quantification of western blot (ADPr normalized to PARP-1)): 2.26 nM
EC50 ([2]; Homo sapiens, HEK-293T, read-out: EC50 cell growth): 0.94 nM
potency in inhibiting cell growth compared with AZ0108 [2]: substantially more potent than AZ0108
effect on the affinity of PARP-1 for nicked DNA [3]: more pronounced effect on DNA binding than Pip5
labeling of PARP-1 by ad-olaparib after pre-treatment ([4]; 10 μM inhibitor, 0.1 μM ad-olaparib): substantially blocked
residence time on PARP-1 compared to AZ0108 ([4]; in cells and in vitro): longer residence time
recovery of labeling of PARP-1 by ad-olaparib after washout ([4]; washout (3 h)): not recovered
inhibition at 0.3 µM [5]: > 90%
fold more cytotoxic than AZ0108 in Ewing sarcoma cells [6]: ~80 fold
Fold Difference to Pip6 ([6]; ratio of EC50 values): 1
EC50 ([6]; viability, 72 h): 0.24 nM
EC50 (nM) ([6]; viability, 72 h): sub-nanomolar
potency against PARP-1 auto-PARylation compared with AZ0108 [7]: equipotent

From US20240317762A1, “PHTHALAZINONE-BASED PARP-1 INHIBITORS” (Oregon Health & Science University, priority 2021, published 2024)
